The target in test [1] is T1, Prostaglandin G/H synthase 1 (Homo sapiens, UniProt P23219). The test is described as follows: Inhibition of human recombinant COX1 expressed in Sf9 cell microsomes assessed as reduction in conversion of arachidonic acid to PGE2 at 250 uM incubated for 5 mins by HTRF assay. On the technique in general: In TR-FRET formats the signal depends on donor and acceptor labels being close together.

The test system of test [2] is Mycobacterium tuberculosis. The test is described as follows: Antimicrobial activity against Mycobacterium tuberculosis str. Erdman assessed as complete inhibition of growth incubated for 14 days by microplate assay. The class given is functional. The following applies: Erdman = ATCC 35801, 336 h.
Test [3] concerns Mycobacterium tuberculosis. The experiment in a line: Inhibition of Mycobacterium tuberculosis InhA at 80 uM using DD-CoA and NADH.
Test [4] addresses T2, Replicase polyprotein 1ab (Severe acute respiratory syndrome-related coronavirus, UniProt P0C6X7). The experiment in a line: Inhibition of SARS coronavirus main proteinase 3C-like protease.
The target in test [5] is T2, Replicase polyprotein 1ab. The experiment in a line: Binding affinity to SARS coronavirus main proteinase 3C-like protease.
Test [6] concerns the target Beta-secretase 1 (Homo sapiens, UniProt P56817). The test is described as follows: Inhibition of BACE1 (unknown origin).
Test [7] concerns the target T1, Prostaglandin G/H synthase 1. The test is described as follows: Inhibition of human recombinant COX1 expressed in Sf9 cell microsomes assessed as reduction in conversion of arachidonic acid to PGE2 incubated for 5 mins by HTRF assay.
Test [8] concerns the target Acetylcholinesterase (Homo sapiens, UniProt P22303). The experiment in a line: Inhibition of AChE (unknown origin).

Each structure is given as a SMILES string. pIC50, pKi: −log10 of the molar value. ≈ marks a conversion by molar mass, not a printed value. A value given as a limit tells only on which side of the number the result lay.

T1 sequence (P23219 whole entry): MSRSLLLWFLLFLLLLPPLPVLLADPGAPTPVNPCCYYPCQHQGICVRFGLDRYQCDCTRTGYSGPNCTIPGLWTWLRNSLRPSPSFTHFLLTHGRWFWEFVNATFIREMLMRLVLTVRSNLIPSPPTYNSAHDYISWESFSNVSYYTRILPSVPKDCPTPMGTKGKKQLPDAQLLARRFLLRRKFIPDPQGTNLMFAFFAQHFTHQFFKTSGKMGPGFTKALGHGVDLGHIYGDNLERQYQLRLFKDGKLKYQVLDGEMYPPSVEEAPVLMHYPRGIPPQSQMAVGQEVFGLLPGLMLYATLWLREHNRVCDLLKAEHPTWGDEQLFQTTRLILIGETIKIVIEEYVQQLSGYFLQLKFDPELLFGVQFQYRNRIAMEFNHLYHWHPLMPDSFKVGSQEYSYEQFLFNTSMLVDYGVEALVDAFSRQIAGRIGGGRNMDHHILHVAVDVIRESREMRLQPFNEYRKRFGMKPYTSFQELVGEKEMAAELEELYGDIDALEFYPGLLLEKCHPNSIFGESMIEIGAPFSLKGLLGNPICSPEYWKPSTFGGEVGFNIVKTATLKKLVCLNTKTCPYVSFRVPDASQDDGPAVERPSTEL
Beta-secretase 1, sequence (P56817 whole entry): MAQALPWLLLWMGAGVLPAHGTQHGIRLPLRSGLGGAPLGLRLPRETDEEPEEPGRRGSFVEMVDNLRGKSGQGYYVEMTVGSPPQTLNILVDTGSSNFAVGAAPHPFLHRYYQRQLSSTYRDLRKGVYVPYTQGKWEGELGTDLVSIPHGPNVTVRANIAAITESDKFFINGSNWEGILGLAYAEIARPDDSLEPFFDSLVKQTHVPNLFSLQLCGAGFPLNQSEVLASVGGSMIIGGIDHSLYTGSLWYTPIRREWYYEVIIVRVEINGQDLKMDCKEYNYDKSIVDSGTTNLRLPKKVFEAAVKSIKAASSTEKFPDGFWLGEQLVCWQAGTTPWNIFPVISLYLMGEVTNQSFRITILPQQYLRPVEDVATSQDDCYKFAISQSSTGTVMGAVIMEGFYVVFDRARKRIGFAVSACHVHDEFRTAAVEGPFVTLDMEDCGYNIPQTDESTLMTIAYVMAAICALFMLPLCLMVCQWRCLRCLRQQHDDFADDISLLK
Acetylcholinesterase, sequence (P22303 whole entry): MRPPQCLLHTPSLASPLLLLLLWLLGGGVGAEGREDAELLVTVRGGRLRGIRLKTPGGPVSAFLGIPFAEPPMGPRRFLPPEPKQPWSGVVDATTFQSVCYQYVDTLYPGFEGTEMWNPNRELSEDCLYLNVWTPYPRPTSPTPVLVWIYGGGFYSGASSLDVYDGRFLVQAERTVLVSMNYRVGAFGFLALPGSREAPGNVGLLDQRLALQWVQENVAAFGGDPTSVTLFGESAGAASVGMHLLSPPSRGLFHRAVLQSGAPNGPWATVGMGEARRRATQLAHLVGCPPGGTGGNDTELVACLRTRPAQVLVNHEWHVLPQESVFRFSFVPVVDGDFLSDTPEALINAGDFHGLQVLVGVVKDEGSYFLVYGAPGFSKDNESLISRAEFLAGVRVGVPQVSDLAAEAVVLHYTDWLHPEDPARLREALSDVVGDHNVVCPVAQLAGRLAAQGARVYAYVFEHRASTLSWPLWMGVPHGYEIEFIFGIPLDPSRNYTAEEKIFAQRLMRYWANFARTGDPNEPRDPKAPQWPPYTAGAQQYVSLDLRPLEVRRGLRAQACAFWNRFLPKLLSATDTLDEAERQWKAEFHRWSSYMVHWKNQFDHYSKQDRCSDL

`CC(C)(Oc1ccc(Cl)cc1)C(=O)O`: in test [1], the inhibition turned out to be 14%.

Consider `CCN(CC)C(=O)/C(C#N)=C/c1cc(O)c(O)c([N+](=O)[O-])c1` [ENTACAPONE], for which, in test [2], the MIC99 was 260 µM (≈ 79.4 µg/mL). The compound further had an inhibition in test [3] of 47%.

With `CC(=O)N[C@@H](Cc1cnc[nH]1)C(=O)N[C@@H](CO)C(=O)N[C@H](C(=O)N[C@@H](CC(C)C)C(=O)N[C@H](C=O)CCC(N)=O)[C@@H](C)O`, in test [4], the negative-log IC50 (pIC50) is under 4.30.

As to `Cc1ccc(C)c(OCCCC(C)(C)C(=O)O)c1`, the inhibition in test [1] amounted to 18%.

Compound `CC(=O)N[C@@H](CC(=O)O)C(=O)N[C@@H](CO)C(=O)N[C@@H](Cc1ccccc1)C(=O)N[C@@H](CC(=O)O)C(=O)N[C@@H](CCC(N)=O)C(=O)O` showed a pKi in test [5] of 4.39.

`CC(=O)N[C@@H](CC(=O)O)C(=O)N[C@@H](CO)C(=O)N[C@H](C(=O)N[C@@H](CC(C)C)C(=O)N[C@H](C=O)CCC(N)=O)[C@@H](C)O`: the pIC50 in test [4] is 5.00.

The compound `CC(=O)N[C@@H](CC(N)=O)C(=O)N[C@@H](CO)C(=O)N[C@H](C(=O)N[C@@H](CC(=O)O)C(=O)N[C@H](C=O)CCC(N)=O)[C@@H](C)O` gave a pIC50 in test [4] of 4.70.

In test [4], `CC(=O)N[C@@H](CC(N)=O)C(=O)N[C@@H](CO)C(=O)N[C@H](C(=O)N[C@@H](CO)C(=O)N[C@H](C=O)CCC(N)=O)[C@@H](C)O` showed a negative logarithm of the IC50 (pIC50) of 5.12. For the same compound, the pKi in test [5] was 4.40.

As for `COc1cc2ncnc(Nc3ccc(F)c(Cl)c3)c2cc1OCCCN1CCOCC1` [GEFITINIB], the pIC50 in test [6] was 4.70.

Compound `CC(=O)N[C@@H](CCC(=O)O)C(=O)N[C@@H](CO)C(=O)N[C@H](C(=O)N[C@@H](CC(C)C)C(=O)N[C@H](C=O)CCC(N)=O)[C@@H](C)O` gave a pIC50 in test [4] of 5.12. Also, the pKi in test [5] is 5.10.

Regarding `O=C(O)c1ccccc1O` [SALICYLIC ACID], the negative logarithm of the IC50 (pIC50) in test [7] is 3.30.

As to `Cc1ccc(Nc2nccc(N(C)c3ccc4c(C)n(C)nc4c3)n2)cc1S(N)(=O)=O` [PAZOPANIB], in test [8], the pIC50 was 6.03.

As for `CC(=O)N[C@@H](CC(N)=O)C(=O)N[C@@H](CO)C(=O)N[C@@H](Cc1ccccc1)C(=O)N[C@@H](CO)C(=O)N[C@@H](CCC(N)=O)C(=O)O`, the pKi in test [5] is 4.14.

The term inhibition denotes the drop in the measured response relative to a control, in per cent. By MIC99 is commonly meant an inhibitory concentration at the 99% level, which refers to growth in some studies and to a panel of isolates in others. What is called pIC50 is the IC50 on a negative log10 scale, so that one unit is a factor of ten. Usually pKi stands for the negative decadic logarithm of the Ki, by convention in mol/L.
